Results on two compounds are retold here after US10473645B2, “Methods for identifying a receptor for a ligand and uses thereof” (UNIVERSITE DE GENEVE, priority 2014, dated 2019).

Test [1] has as its target T1, OR67c (Drosophila melanogaster, UniProt Q9VT90). The following applies: Hallem and Carlson, 2006; cited from earlier work.
The target in test [2] is T1, OR67c. The test is described as follows: Drosophila OR transcript level by RT-qPCR after odorant exposure. It is filed as in vivo, Drosphila melanogaster. Also on record: from tissue; host or cells: olfactory neurons of living W1118 flies (heads / antennae collected for RNA). The following applies: 5% odorant in DMSO, 5 hours, fly heads. How it is done: (§1) Drosophila (W1118) were collected between 0 and 14 hours after hatching. Males and females were exposed separately.
(§2) For flies, after exposure, vials containing the animals were placed upside down in a −80° C. freezer for five minutes, then kept in a −20° C. freezer until dissection. Whole heads were removed by hand and placed in a screw-cap tube containing 1 ml of Trizol (Ambion) and a 0.5 cm diameter steel ball, and kept on ice. Samples were homogenized using four runs of 15 s at 6 m/s on a FastPrep®-24 instrument (MP Biomedicals).
(§3) Samples were cooled on ice between each run. RNA extraction followed the Trizol protocol according to the manufacturer instructions, and using 5 μg of RNase-free glycogen as carrier for RNA precipitation. The RNA pellet was resuspended in 20 μl of RNase-free water and a DNAse treatment (Life Technologies Ambion DNase I®) was performed.
(§4) 24 hours-old Drosphila melanogaster flies were kept in plastic tubes and exposed to either 5% ethyl lactate diluted in DMSO or to 5% geranyl acetate diluted in DMSO. The odorants were spotted on papers that were introduced into the plastic tubes. 10 flies were used per condition (8 independent extracts per condition). 5 hours after exposure heads were collected and RNA extracted.
(§5) The transcript levels for Or67c (a known receptor for ethyl lactate) and Or82a (a known receptor for geranyl acetate) were evaluated by RT-qPCR.

The target of test [3] is T2, OR82a (Drosophila melanogaster, UniProt P82986). The following applies: Hallem and Carlson, 2006; cited from earlier work.
Test [4] addresses T2, OR82a. Put plainly: Drosophila OR transcript level by RT-qPCR after odorant exposure. Also on record: from tissue; host or cells: olfactory neurons of living W1118 flies (heads / antennae collected for RNA). The test is classed as in vivo, Drosphila melanogaster. The following applies: 5% odorant in DMSO, 5 hours, fly heads. Here is the method: as §1, §2, §3, §4, §5
Background: In qPCR the cycle at which signal appears reflects the starting amount.

T1 sequence (Q9VT90 whole entry): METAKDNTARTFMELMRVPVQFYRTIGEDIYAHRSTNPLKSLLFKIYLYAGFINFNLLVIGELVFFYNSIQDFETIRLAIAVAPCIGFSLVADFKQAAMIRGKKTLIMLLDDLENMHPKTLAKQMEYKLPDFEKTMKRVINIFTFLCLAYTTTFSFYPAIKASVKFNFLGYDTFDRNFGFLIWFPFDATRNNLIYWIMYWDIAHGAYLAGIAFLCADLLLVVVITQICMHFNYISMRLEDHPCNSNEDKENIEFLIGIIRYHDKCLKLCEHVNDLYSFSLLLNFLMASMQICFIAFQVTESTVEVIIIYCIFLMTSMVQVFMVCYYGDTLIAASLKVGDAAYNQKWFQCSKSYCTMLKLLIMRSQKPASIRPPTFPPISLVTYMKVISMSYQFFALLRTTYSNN
T1 sequence (Q9VNB5 whole entry partner): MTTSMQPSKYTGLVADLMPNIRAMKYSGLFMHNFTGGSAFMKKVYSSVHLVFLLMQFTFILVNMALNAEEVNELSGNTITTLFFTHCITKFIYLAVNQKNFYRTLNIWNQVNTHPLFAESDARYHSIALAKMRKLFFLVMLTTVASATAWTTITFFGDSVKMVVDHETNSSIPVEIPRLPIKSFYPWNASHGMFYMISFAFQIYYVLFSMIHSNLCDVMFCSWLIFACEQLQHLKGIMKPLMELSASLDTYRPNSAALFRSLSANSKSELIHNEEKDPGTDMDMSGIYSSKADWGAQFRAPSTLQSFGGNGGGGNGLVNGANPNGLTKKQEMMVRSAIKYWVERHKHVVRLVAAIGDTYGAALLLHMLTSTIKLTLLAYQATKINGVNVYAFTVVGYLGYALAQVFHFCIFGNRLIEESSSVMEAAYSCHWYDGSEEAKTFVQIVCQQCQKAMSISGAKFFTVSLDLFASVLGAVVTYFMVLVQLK
T2 sequence (P82986 whole entry): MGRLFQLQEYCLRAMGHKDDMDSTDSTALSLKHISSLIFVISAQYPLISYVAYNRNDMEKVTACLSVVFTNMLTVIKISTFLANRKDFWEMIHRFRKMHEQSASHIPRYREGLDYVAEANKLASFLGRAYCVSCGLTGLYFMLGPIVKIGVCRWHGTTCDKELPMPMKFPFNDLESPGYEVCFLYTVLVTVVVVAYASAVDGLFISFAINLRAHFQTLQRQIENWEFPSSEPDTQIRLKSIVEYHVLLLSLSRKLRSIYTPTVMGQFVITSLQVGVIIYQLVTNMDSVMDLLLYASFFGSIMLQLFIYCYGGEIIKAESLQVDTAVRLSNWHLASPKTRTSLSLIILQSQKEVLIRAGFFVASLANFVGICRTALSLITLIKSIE
T2 sequence (Q9VNB5 whole entry partner): as the sequence (Q9VNB5 whole entry partner) above

Consider `CCOC(=O)C(C)O` (stereo not shown) [ethyl lactate], for which, at OR67c [1], the “OR67c response previously shown” value was “respond”. For the same compound, at OR67c [2], the “Or67c mRNA level relative to control ORs” value is 0.7 ×.
Consider `CC(=O)OC/C=C(\C)CCC=C(C)C` [geranyl acetate], for which the “OR82a response previously shown” value at OR82a [3] is reported as “respond”. The “Or82a mRNA level relative to control ORs” value on OR82a [4] is reported as 0.6 ×.
